Measured values from patent US10197560B2 (priority 2013, dated 2019).
Entries after “also recorded” stand apart in the source; their conditions may differ.

How the values were obtained:
[1] = biological target: T1, recombinant Rv3378c protein (Mycobacterium tuberculosis, UniProt P9WJ61); assay: Rv3378c enzymatic assays (tuberculosinyl transferase, HPLC-MS detection of 1-TbAd); assay type: biochemical, M. tuberculosis; conditions: pH 7.4
T1 construct: hexahistidine (His6) tag from pET-28b, thrombin-cleavable (N, cleaved yes); made in house; host or cells: E. coli BL21-CodonPlus, co-expressed with GroES/GroEL chaperones
T1 sequence (P9WJ61 1-296): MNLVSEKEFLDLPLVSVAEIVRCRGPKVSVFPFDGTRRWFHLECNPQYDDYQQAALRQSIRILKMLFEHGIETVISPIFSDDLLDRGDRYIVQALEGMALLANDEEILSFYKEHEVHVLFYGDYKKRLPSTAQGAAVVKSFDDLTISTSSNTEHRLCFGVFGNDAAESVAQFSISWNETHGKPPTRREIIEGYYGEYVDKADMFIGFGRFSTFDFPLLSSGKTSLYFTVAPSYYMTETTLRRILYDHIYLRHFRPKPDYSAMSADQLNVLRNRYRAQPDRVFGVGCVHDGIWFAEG

[2] = test system: phagosomal acidification; conditions: synthetic tuberculosinols coupled to beads; reference (21); cited from earlier work

Row | Molecule | product formation by Rv3378c from diterpene pyrophosphate substrate and adenosine [1] | effect on phagosomal acidification [2]
1 | CC(C)=CCC/C(C)=C/CC/C(C)=C/CC/C(C)=C/COP(=O)(O)OP(=O)(O)O [GGPP, geranylgeranyl pyrophosphate] | little or no product; also recorded: does not act on GGPP | –
2 | C/C(=C\CO)CC[C@@]1(C)[C@@H]2CCCC(C)(C)C2=CC[C@@H]1C [tuberculosinols, tuberculosinol] | – | block phagosomal acidification
3 | tuberculosinyl pyrophosphate [TbPP] | catalyzed the condensation of adenosine and TbPP to generate 1-TbAd | –
